pKd: −log10 of the molar value.
Legend:
Ba/F3_KRAS^G12D cells = Ba/F3_KRAS^G12D cells (Homo sapiens, UniProt P01116, G12D, cells depend on it); test: Ba/F3 KRAS G12D cell proliferation assay (CellTiter-Glo); format: cell-based; details: treated for 3 days, cell-titer Glo, cell growth inhibition, read-out: BaF3_KRAS^G12D IC50
Protocol: Ba/F3_KRAS^G12D cells (KYinno, China) were generated by transducing Ba/F3 parental cells with the recombinant KRAS^G12D lentivirus and followed by 1 ug/mL of puromycin selection and IL3 depletion. […] Cells were seeded at a density of 5×10^3 per well into 96-well plate and incubated overnight. Serial diluted compounds were added to each well. Cells were treated with the compounds for 3 days, after which cell-titer Glo reagent (Promega #G7572) was used to assess cell proliferation. The luminescence signal was then collected on Tecan Spark plate reader. […] Cell growth inhibition of IC50 is calculated with the equation of Y=Bottom+(Top−Bottom)/(1+10^((Log IC50−X)*Hill Slope))

[1] = molecular target: recombinant human KRAS^G12D protein (Homo sapiens, UniProt P01116, G12D); test: Temperature-dependent Fluorescence (TdF) KRAS G12D protein binding assay; details: 6 μM KRAS^G12D protein, 10 μM compound, Sypro Orange; Kd calculated from the fluorescent shift
Protocol: The Temperature-dependent Fluorescence (TdF) assay was used to analyze binding affinity of compound to recombinant human KRAS^G12D protein. The TdF assay was conducted in the 96-well-based real-time fluorescence plate reader (ABI 7500 or Roche LightCycler 480). Fluorescent dye Sypro Orange (Sigma) was used to monitor the protein folding-unfolding transition. Protein-compound binding was gauged by the shift in the unfolding transition temperature (ΔTm) acquired with and without compound. Each reaction sample consists of 6 μM KRAS^G12D Protein, 10 μM compound, and Sypro Orange dye (in 1% DMSO) in 20 μL reaction buffer (25 mM HEPES pH 7.5, 150 mM NaCl, 10 mM MgCl2). […] Binding affinity (Kd value) was calculated based on the degree of fluorescent shift of the protein with and without compound.

Ba/F3_KRAS^G12D cells, sequence (P01116 whole entry G12D): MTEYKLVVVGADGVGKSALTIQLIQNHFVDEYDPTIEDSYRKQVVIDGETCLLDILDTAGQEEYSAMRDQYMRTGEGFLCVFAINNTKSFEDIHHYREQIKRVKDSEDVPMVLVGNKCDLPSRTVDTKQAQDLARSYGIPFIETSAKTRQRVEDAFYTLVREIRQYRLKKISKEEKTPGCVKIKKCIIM
recombinant human KRAS^G12D protein, sequence (P01116 1-188 isoform P01116-2 G12D): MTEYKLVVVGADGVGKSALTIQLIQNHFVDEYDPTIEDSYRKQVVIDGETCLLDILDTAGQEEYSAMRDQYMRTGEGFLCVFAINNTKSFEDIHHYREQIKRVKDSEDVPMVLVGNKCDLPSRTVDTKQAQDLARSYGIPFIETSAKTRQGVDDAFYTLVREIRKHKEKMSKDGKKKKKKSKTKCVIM

GI50 (Ba/F3_KRAS^G12D cells) [µM] | pKd [1] | SMILES
0.5 to 5 | < 5.30 | CN1CC2CN(c3nc(N4CC5CCC(C4)N5)c4cc(Cl)c(-c5cc(O)cc6ccccc56)c(F)c4n3)CC2C1 (centres unmarked) [Compound 40]
0.5 to 5 | < 5.30 | CN1CCC2(CC1)CCN(c1nc(N3CC4CCC(C3)N4)c3cc(Cl)c(-c4cc(O)cc5ccccc45)c(F)c3n1)C2 [Compound 41]
0.5 to 5 | < 5.30 | CN1CCC2CCN(c3nc(N4CC5CCC(C4)N5)c4cc(Cl)c(-c5cc(O)cc6ccccc56)c(F)c4n3)CC21 (centres unmarked) [Compound 42]
0.5 to 5 | < 5.30 | CN1CCC2CN(c3nc(N4CC5CCC(C4)N5)c4cc(Cl)c(-c5cc(O)cc6ccccc56)c(F)c4n3)CC2C1 (centres unmarked) [Compound 43]
0.5 to 5 | < 5.30 | CN1CCC2(CCN(c3nc(N4CC5CCC(C4)N5)c4cc(Cl)c(-c5cc(O)cc6ccccc56)c(F)c4n3)C2)C1 (centres unmarked) [Compound 44]
0.5 to 5 | < 5.30 | CN1CC2(CCN(c3nc(N4CC5CCC(C4)N5)c4cc(Cl)c(-c5cc(O)cc6ccccc56)c(F)c4n3)CC2)C1 [Compound 45]
> 5 | 5.30 to 6.30 | Oc1cc(-c2c(Cl)cc3c(N4CC5CCC(C4)N5)nc(OCCN4CCC(O)C4)nc3c2F)c2ccccc2c1 (centres unmarked) [Compound 46]
< 0.5 | > 6.30 | Cc1cccc2cc(O)cc(-c3c(Cl)cc4c(N5CC6CCC(C5)N6)nc(OC[C@@]56CCCN5C[C@H](F)C6)nc4c3F)c12 [Compound 47]
> 5 | < 5.30 | CC(C)N1CC(Nc2nc(N3C[C@@H](C)NC[C@@H]3C)c3cc(Cl)c(-c4cc(O)cc5ccccc45)c(F)c3n2)C1 [Compound 49]
0.5 to 5 | 5.30 to 6.30 | CN1CC(COc2nc(N3CC4CCC(C3)N4)c3cc(Cl)c(-c4cc(O)cc5ccccc45)c(F)c3n2)CC(F)(F)C1 (centres unmarked) [Compound 50]
0.5 to 5 | < 5.30 | CN(C)CC1CN(c2nc(N3CC4CCC(C3)N4)c3cc(Cl)c(-c4cc(O)cc5ccccc45)c(F)c3n2)C1 [Compound 51]
0.5 to 5 | < 5.30 | CN(C)C1CCN(c2nc(N3CC4CCC(C3)N4)c3cc(Cl)c(-c4cc(O)cc5ccccc45)c(F)c3n2)C1 (centres unmarked) [Compound 52]
0.5 to 5 | < 5.30 | CN(C)CC1CCN(c2nc(N3CC4CCC(C3)N4)c3cc(Cl)c(-c4cc(O)cc5ccccc45)c(F)c3n2)CC1 [Compound 53]
0.5 to 5 | < 5.30 | CN(C)C1CCN(c2nc(N3CC4CCC(C3)N4)c3cc(Cl)c(-c4cc(O)cc5ccccc45)c(F)c3n2)CC1 [Compound 54]
< 0.5 | > 6.30 | N#Cc1cc2c(N3CC4CCC(C3)N4)nc(OC[C@@]34CCCN3C[C@H](F)C4)nc2c(F)c1-c1cc(O)cc2cccc(Cl)c12 [Compound 55]
0.5 to 5 | < 5.30 | CN(C)C1CCCN(c2nc(N3CC4CCC(C3)N4)c3cc(Cl)c(-c4cc(O)cc5ccccc45)c(F)c3n2)C1 (centres unmarked) [Compound 56]
0.5 to 5 | < 5.30 | CN1CCOCC1COc1nc(N2CC3CCC(C2)N3)c2cc(Cl)c(-c3cc(O)cc4ccccc34)c(F)c2n1 (centres unmarked) [Compound 57]
< 0.5 | > 6.30 | Oc1cc(-c2c(Cl)cc3c(N4CC5CCC(C4)N5)nc(OC[C@@]45CCCN4C[C@H](F)C5)nc3c2F)c2c(Cl)cccc2c1 [Compound 58]
0.5 to 5 | < 5.30 | Oc1cc(-c2c(Cl)cc3c(N4CC5CCC(C4)N5)nc(OCCN4CCOCC4)nc3c2F)c2ccccc2c1 [Compound 59]
0.5 to 5 | < 5.30 | CN1CCC(c2nc(N3CC4CCC(C3)N4)c3cc(Cl)c(-c4cc(O)cc5ccccc45)c(F)c3n2)CC1 [Compound 60]
0.5 to 5 | > 6.30 | Oc1cc(-c2c(Cl)cc3c(N4CC5CCC(C4)N5)nc(OCC45CCCN4CCC5)nc3c2F)c2c(Cl)cccc2c1 [Compound 61]
< 0.5 | 5.30 to 6.30 | Fc1c(-c2cccc3cccc(Cl)c23)c(Cl)cc2c(N3CC4CCC(C3)N4)nc(OCC34CCCN3CCC4)nc12 [Compound 64]

GI50 (Ba/F3_KRAS^G12D cells) [µM] | pKd [1] | SMILES
0.5 to 5 | > 6.30 | Oc1cc(-c2c(Cl)cc3c(N4CC5CCC(C4)N5)nc(OCC45CCCN4CC(F)(F)C5)nc3c2F)c2c(Cl)cccc2c1 (centres unmarked) [Compound 65]
> 5 | < 5.30 | Nc1cccc(F)c1-c1c(Cl)cc2c(N3C4CCC3CNC4)nc(OCC34CCCN3CCC4)nc2c1F [Compound 66]
> 5 | 5.30 to 6.30 | Oc1cccc(F)c1-c1c(Cl)cc2c(N3C4CCC3CNC4)nc(OCC34CCCN3CCC4)nc2c1F [Compound 67]
0.5 to 5 | 5.30 to 6.30 | Fc1c(-c2cccc3ccccc23)c(Cl)cc2c(N3CC4CCC(C3)N4)nc(OCC34CCCN3CCC4)nc12 [Compound 69]
> 5 | 5.30 to 6.30 | Oc1ccc2ccccc2c1-c1c(Cl)cc2c(N3CC4CCC(C3)N4)nc(OCC34CCCN3CCC4)nc2c1F [Compound 70]
0.5 to 5 | 5.30 to 6.30 | Fc1c(-c2cccc3cccc(Cl)c23)c(Cl)cc2c(N3C4CCC3CNC4)nc(OCC34CCCN3CCC4)nc12 [Compound 72]
< 0.5 | > 6.30 | Oc1cc(-c2c(Cl)cc3c(N4CC5CCC(C4)N5)nc(OC[C@@]45CCCN4C[C@H](F)C5)nc3c2F)c2c(Cl)c(F)ccc2c1 [Compound 74]
0.5 to 5 | < 5.30 | Cc1cccc2[nH]nc(-c3c(Cl)cc4c(N5CC6CCC(C5)N6)nc(OC[C@@H]5CCCN5C)nc4c3F)c12 [Compound 75]
0.5 to 5 | > 6.30 | CN1C[C@H](F)C[C@H]1COc1nc(N2CC3CCC(C2)N3)c2cc(Cl)c(-c3cc(O)cc4ccccc34)c(F)c2n1 [Compound 76]
0.5 to 5 | < 5.30 | Oc1cc(-c2c(Cl)cc3c(N4CC5CCC(C4)N5)nc(OCCN4CCCC4)nc3c2F)c2ccccc2c1 [Compound 78]
0.5 to 5 | > 6.30 | CN1CCC1COc1nc(N2CC3CCC(C2)N3)c2cc(Cl)c(-c3cc(O)cc4ccccc34)c(F)c2n1 (centres unmarked) [Compound 79]
> 5 | > 6.30 | CN1C[C@H](O)C[C@H]1COc1nc(N2CC3CCC(C2)N3)c2cc(Cl)c(-c3cc(O)cc4ccccc34)c(F)c2n1 [Compound 80]
0.5 to 5 | > 6.30 | Oc1cc(-c2c(Cl)cc3c(N4CC5CCC(C4)N5)nc(OCC45CCCN4CC(F)(F)C5)nc3c2F)c2ccccc2c1 (centres unmarked) [Compound 81]
> 5 | < 5.30 | Oc1cc(-c2ccc3c(N4CC5CCC(C4)N5)nc(OCC45CCCN4CCC5)nc3c2F)c2c(Cl)cccc2c1 [Compound 82]
0.5 to 5 | < 5.30 | CN1CCN(c2nc(N3CC4CCC(C3)N4)c3cc(Cl)c(-c4cc(O)cc5ccccc45)c(F)c3n2)CC1 [Compound 83]
< 0.5 | > 6.30 | Oc1cc(-c2c(Cl)cc3c(N4CC5CCC(C4)N5)nc(OCC45CCCN4CCC5)nc3c2F)c2ccccc2c1 [Compound 85]
< 0.5 | > 6.30 | N#Cc1cc2c(N3CC4CCC(C3)N4)nc(OC[C@@]34CCCN3C[C@H](F)C4)nc2c(F)c1-c1cc(O)cc2ccccc12 [Compound 86]
0.5 to 5 | 5.30 to 6.30 | Cc1cccc2cccc(-c3c(C#N)cc4c(N5CC6CCC(C5)N6)nc(OC[C@@]56CCCN5C[C@H](F)C6)nc4c3F)c12 [Compound 87]
< 0.5 | > 6.30 | Cc1cccc2cc(O)cc(-c3c(C#N)cc4c(N5CC6CCC(C5)N6)nc(OC[C@@]56CCCN5C[C@H](F)C6)nc4c3F)c12 [Compound 88]
0.5 to 5 | 5.30 to 6.30 | N#Cc1cc2c(N3CC4CCC(C3)N4)nc(OC[C@@]34CCCN3C[C@H](F)C4)nc2c(F)c1-c1cccc2cccc(Cl)c12 [Compound 89]
0.5 to 5 | < 5.30 | N#Cc1cc2c(N3CC4CCC(C3)N4)nc(OC[C@@]34CCCN3C[C@H](F)C4)nc2c(F)c1-c1c(N)cccc1F [Compound 91]

— patent US20230242544A1, “QUINAZOLINE COMPOUNDS, PREPARATION METHODS AND USES THEREOF” (INVENTISBIO CO., LTD., priority 2020, published 2023)
